From paper PMC8225045, “Chemical Synthesis and Structure-Activity Relationship Study Yield Desotamide a Analogues with Improved Antibacterial Activity” (Marine Drugs, 2021)
In brackets after ≈: the same amount, converted by molar mass. Like-named read-outs stand apart in the source and are kept apart here. Non-standard residues stand in square brackets, D forms with d. Residues, ends and D or L forms follow the SMILES beside them. aIle = CC[C@@H](C)[C@H](N)C(=O)O

Columns and labels:
Gram-positive pathogens = conditions: for Gram positive antibacterial activity for desotamides (in words): Figure 2
Procedure: (§1) All the synthesized cyclopeptides (7–19) and the desotamide A (1) isolated from S. scopuliridis SCSIO ZJ46 were evaluated for antibacterial activities against a series of Gram-positive pathogens including […] Staphylococcus aureus ATCC29213, Bacillus subtilis BS01, Micrococcus luteus ML01, Enterococcus faecalis ATCC29212; 3 drug-resistant poultry pathogens Staphylococcus simulans LJH13, Enterococcus gallinarum LJH11, Staphylococcus haemolyticus LJH9; 4 clinical methicillin-resistant Staphylococcus aureus (MRSA) shhs-E1, MRSA 16339, MRSA 745524, MRSA 16162. Their antibacterial activities against the […] pathogens Escherichia coli ATCC 13,124 and clinical drug-resistant Klebsiella pneumonia 15580 were also assayed.
(§2) Ampicillin, vancomycin and polymyxin were used as control. The maximum test concentrations for all the compounds were 128 μg/mL.

[1] = system: Klebsiella pneumoniae 15580
Procedure: as §1, §2

[2] = system: Staphylococcus aureus ATCC 29213; assay: microbe, parasite or virus in culture
Procedure: as §1, §2

Micrococcus luteus ML01 = assay: microbe, parasite or virus in culture
Procedure: as §1, §2

[3] = system: Staphylococcus haemolyticus LJH9; assay: microbe, parasite or virus in culture
Procedure: as §1, §2

[4] = system: Enterococcus faecalis ATCC 29212; assay: microbe, parasite or virus in culture
Procedure: as §1, §2

MRSA 16339 = assay: microbe, parasite or virus in culture
Procedure: as §1, §2

Bacillus subtilis BS01 = assay: microbe, parasite or virus in culture
Procedure: as §1, §2

[5] = system: methicillin-resistant Staphylococcus aureus (MRSA) shhsE1; assay: microbe, parasite or virus in culture
Procedure: as §1, §2

[6] = system: Enterococcus gallinarum LJH11; assay: microbe, parasite or virus in culture
Procedure: as §1, §2

[7] = system: Staphylococcus simulans LJH13; assay: microbe, parasite or virus in culture
Procedure: as §1, §2

MRSA 16162 = assay: microbe, parasite or virus in culture
Procedure: as §1, §2

MRSA 745524 = assay: microbe, parasite or virus in culture
Procedure: as §1, §2

[8] = Staphylococcus aureus, ATCC29213
[9] = Staphylococcus haemolyticus, LJH9
[10] = Enterococcus faecalis, ATCC29212
[11] = Enterococcus gallinarum, GALLINARUM
[12] = clinical MRSA shhsE1, two-fold serial dilution, Mueller-Hinton broth, 96-well plate, CLSI-based, maximum test concentration 128 μg/mL
[13] = Enterococcus gallinarum LJH11, drug-resistant poultry pathogen, two-fold serial dilution, Mueller-Hinton broth, 96-well plate, CLSI-based, maximum test concentration 128 μg/mL

Row | Compound | Gram positive antibacterial activity for desotamides (in words) (Gram-positive pathogens; summary) | MIC [1]; 15580 | MIC ([2]; ATCC 29213) | MIC (Micrococcus luteus ML01; ML01) | MIC [3] | MIC ([4]; ATCC 29212) | MIC (MRSA 16339; 16339) | MIC (Bacillus subtilis BS01; BS01) | MIC ([5]; methicillin-resistant shhsE1) | MIC [6] | MIC [7] | MIC (MRSA 16162; 16162) | MIC (MRSA 745524; 745524) | MIC [5, 12] | other results
1 | CC[C@H](C)[C@@H]1NC(=O)[C@H](CC(N)=O)NC(=O)[C@@H](Cc2c[nH]cn2)NC(=O)[C@H](Cc2c[nH]c3ccccc23)NC(=O)[C@H](CC(C)C)NC(=O)[C@@H](CC(C)C)NC1=O [Compound 14, Desotamide A5] (cyclo(I[dL]LW[dH]N)) | 2-Fold less active than 1 | >128 µg/mL | 64 µg/mL (≈ 82.4 µM) | 64 µg/mL (≈ 82.4 µM) | 64 µg/mL (≈ 82.4 µM) | 64 µg/mL (≈ 82.4 µM) | 64 µg/mL (≈ 82.4 µM) | 64 µg/mL (≈ 82.4 µM) | 64 µg/mL (≈ 82.4 µM) | 128 µg/mL (≈ 165 µM) | 64 µg/mL (≈ 82.4 µM) | 64 µg/mL (≈ 82.4 µM) | 64 µg/mL (≈ 82.4 µM) | – | fold less potent MIC value compared to 1 (Gram-positive pathogens; Gram-positive bacteria, generally): 2 fold
2 | CC1(C)S[C@@H]2[C@H](NC(=O)[C@H](N)c3ccccc3)C(=O)N2[C@H]1C(=O)O [Amp, ampicillin, reference compound] | – | – | – | – | – | – | – | – | – | – | – | – | – | – | MIC [2, 8]: 1 µg/mL (≈ 2.86 µM); MIC (Micrococcus luteus ML01; Micrococcus luteus, ML01): 0.25 µg/mL (≈ 0.715 µM); MIC [3, 9]: 16 µg/mL (≈ 45.8 µM); MIC [4, 10]: 4 µg/mL (≈ 11.4 µM); MIC (MRSA 16339; Staphylococcus aureus, MRSA): 64 µg/mL (≈ 183 µM); MIC (Bacillus subtilis BS01; Bacillus subtilis, BS01): < 0.0625 µg/mL; MIC ([5]; Staphylococcus aureus, MRSA): 64 µg/mL (≈ 183 µM); MIC [6, 11]: 2 µg/mL (≈ 5.72 µM); MIC ([7]; Staphylococcus simulans, LJH13): 0.25 µg/mL (≈ 0.715 µM); MIC (MRSA 16162; Staphylococcus aureus, MRSA): 32 µg/mL (≈ 91.6 µM); MIC (MRSA 745524; Staphylococcus aureus, MRSA): 16 µg/mL (≈ 45.8 µM)
3 | CN[C@H](CC(C)C)C(=O)N[C@H]1C(=O)N[C@@H](CC(N)=O)C(=O)N[C@H]2C(=O)N[C@H]3C(=O)N[C@H](C(=O)N[C@H](C(=O)O)c4cc(O)cc(O)c4-c4cc3ccc4O)[C@H](O)c3ccc(c(Cl)c3)Oc3cc2cc(c3O[C@@H]2O[C@H](CO)[C@@H](O)[C@H](O)[C@H]2O[C@H]2C[C@](C)(N)[C@H](O)[C@H](C)O2)Oc2ccc(cc2Cl)[C@H]1O [Van, vancomycin, reference compound] | – | – | – | – | – | – | – | – | – | – | – | – | – | – | MIC [2, 8]: 0.5 µg/mL (≈ 0.345 µM); MIC (Micrococcus luteus ML01; Micrococcus luteus, ML01): 0.25 µg/mL (≈ 0.173 µM); MIC [3, 9]: 2 µg/mL (≈ 1.38 µM); MIC [4, 10]: 4 µg/mL (≈ 2.76 µM); MIC (MRSA 16339; Staphylococcus aureus, MRSA): 0.25 µg/mL (≈ 0.173 µM); MIC (Bacillus subtilis BS01; Bacillus subtilis, BS01): 0.125 µg/mL (≈ 0.0863 µM); MIC ([5]; Staphylococcus aureus, MRSA): 0.5 µg/mL (≈ 0.345 µM); MIC [6, 11]: 8 µg/mL (≈ 5.52 µM); MIC ([7]; Staphylococcus simulans, LJH13): 0.25 µg/mL (≈ 0.173 µM); MIC (MRSA 16162; Staphylococcus aureus, MRSA): 0.5 µg/mL (≈ 0.345 µM); MIC (MRSA 745524; Staphylococcus aureus, MRSA): 0.5 µg/mL (≈ 0.345 µM)
4 | CC[C@@H](C)[C@@H]1NC(=O)[C@H](CC(N)=O)NC(=O)[C@@H](CCCNC(=N)N)NC(=O)[C@H](Cc2c[nH]c3ccccc23)NC(=O)[C@H](CC(C)C)NC(=O)[C@@H](CC(C)C)NC1=O [Compound 10, Desotamide A1] (cyclo(LW[dR]N[aIle][dL])) | Inactive | >128 µg/mL | >128 µg/mL | 64 µg/mL (≈ 80.4 µM) | >128 µg/mL | >128 µg/mL | >128 µg/mL | >128 µg/mL | >128 µg/mL | >128 µg/mL | >128 µg/mL | >128 µg/mL | >128 µg/mL | – | –
5 | CC(C)C[C@@H]1NC(=O)[C@H](Cc2c[nH]c3ccccc23)NC(=O)[C@@H](CCCCN)NC(=O)[C@H](CC(N)=O)NC(=O)[C@H](CC(C)C)NC(=O)[C@@H](CC(C)C)NC1=O [Compound 17, Desotamide A8] (cyclo([dK]WL[dL]LN)) | Slightly less active than 1 | >128 µg/mL | 32 µg/mL (≈ 41.7 µM) | 16 µg/mL (≈ 20.8 µM) | 64 µg/mL (≈ 83.3 µM) | 128 µg/mL (≈ 167 µM) | 64 µg/mL (≈ 83.3 µM) | 32 µg/mL (≈ 41.7 µM) | – | >128 µg/mL | 32 µg/mL (≈ 41.7 µM) | 64 µg/mL (≈ 83.3 µM) | 32 µg/mL (≈ 41.7 µM) | 64 µg/mL (≈ 83.3 µM) | –
6 | CC[C@@H](C)[C@@H]1NC(=O)[C@H](CC(N)=O)NC(=O)[C@@H](Cc2c[nH]cn2)NC(=O)[C@H](Cc2c[nH]c3ccccc23)NC(=O)[C@H](CC(C)C)NC(=O)[C@@H](CC(C)C)NC1=O [Compound 12, Desotamide A3] (cyclo(LW[dH]N[aIle][dL])) | Inactive | >128 µg/mL | >128 µg/mL | >128 µg/mL | >128 µg/mL | >128 µg/mL | >128 µg/mL | >128 µg/mL | >128 µg/mL | >128 µg/mL | >128 µg/mL | >128 µg/mL | >128 µg/mL | – | –
7 | CC(C)C[C@@H]1NC(=O)[C@H](Cc2c[nH]c3ccccc23)NC(=O)[C@@H](CCCCN)NC(=O)[C@H](CC(N)=O)NC(=O)[C@H](C(C)C)NC(=O)[C@@H](CC(C)C)NC1=O [Compound 9, Wollamide B2] (cyclo([dK]WL[dL]VN)) | – | >128 µg/mL | 32 µg/mL (≈ 42.4 µM) | 16 µg/mL (≈ 21.2 µM) | 32 µg/mL (≈ 42.4 µM) | 64 µg/mL (≈ 84.9 µM) | 32 µg/mL (≈ 42.4 µM) | 16 µg/mL (≈ 21.2 µM) | – | – | 16 µg/mL (≈ 21.2 µM) | 32 µg/mL (≈ 42.4 µM) | 32 µg/mL (≈ 42.4 µM) | 32 µg/mL (≈ 42.4 µM) | fold increase of anti-Gram-positive activity compared to wollamide B (7) (Gram-positive pathogens; Gram-positive bacteria): 2–4 folds; Gram positive antibacterial activity for wollamides (in words) (Gram-positive pathogens; summary, Figure 3): 2–4-Fold more active than 7; MIC [6, 13]: 128 µg/mL (≈ 170 µM)
8 | CC[C@@H](C)[C@@H]1NC(=O)[C@H](CC(N)=O)NC(=O)[C@@H](CCCCN)NC(=O)[C@H](Cc2c[nH]c3ccccc23)NC(=O)[C@H](CC(C)C)NC(=O)[C@@H](CC(C)C)NC1=O [Compound 11, Desotamide A2] (cyclo(LW[dK]N[aIle][dL])) | Inactive | >128 µg/mL | >128 µg/mL | >128 µg/mL | >128 µg/mL | >128 µg/mL | >128 µg/mL | >128 µg/mL | >128 µg/mL | >128 µg/mL | >128 µg/mL | >128 µg/mL | >128 µg/mL | – | –
9 | CC(C)C[C@@H]1NC(=O)[C@H](CC(N)=O)NC(=O)CNC(=O)[C@H](Cc2c[nH]c3ccccc23)NC(=O)[C@H](CC(C)C)NC(=O)[C@@H](CC(C)C)NC1=O [Compound 16, Desotamide A7] (cyclo(NL[dL]LWG)) | Inactive | >128 µg/mL | >128 µg/mL | >128 µg/mL | >128 µg/mL | >128 µg/mL | >128 µg/mL | >128 µg/mL | – | >128 µg/mL | >128 µg/mL | >128 µg/mL | >128 µg/mL | >128 µg/mL | MIC values against Gram-positive pathogens (summary over the panel) (Gram-positive pathogens; series of Gram-positive pathogens including MRSA, summary of Table 1): > 128 µg/mL
10 | cyclo(Asn-Ile-D-Leu-Leu-Trp-D-Arg) (head to tail) [Compound 19, Desotamide A0] | Slightly less active than 1 | – | – | – | – | – | – | – | – | – | – | – | – | 64 µg/mL | MIC ([1]; clinical drug-resistant Klebsiella pneumoniae 15580, two-fold serial dilution, Mueller-Hinton broth, 96-well plate, CLSI-based, maximum test concentration 128 μg/mL): >128 µg/mL; MIC ([2]; Staphylococcus aureus ATCC 29213, two-fold serial dilution, Mueller-Hinton broth, 96-well plate, CLSI-based, maximum test concentration 128 μg/mL): 64 µg/mL; MIC (Micrococcus luteus ML01; Micrococcus luteus ML01, two-fold serial dilution, Mueller-Hinton broth, 96-well plate, CLSI-based, maximum test concentration 128 μg/mL): 32 µg/mL; MIC ([3]; Staphylococcus haemolyticus LJH9, drug-resistant poultry pathogen, two-fold serial dilution, Mueller-Hinton broth, 96-well plate, CLSI-based, maximum test concentration 128 μg/mL): 64 µg/mL; MIC ([4]; Enterococcus faecalis ATCC 29212, two-fold serial dilution, Mueller-Hinton broth, 96-well plate, CLSI-based, maximum test concentration 128 μg/mL): 128 µg/mL; MIC (MRSA 16339; clinical MRSA 16339, two-fold serial dilution, Mueller-Hinton broth, 96-well plate, CLSI-based, maximum test concentration 128 μg/mL): 128 µg/mL; MIC (Bacillus subtilis BS01; Bacillus subtilis BS01, two-fold serial dilution, Mueller-Hinton broth, 96-well plate, CLSI-based, maximum test concentration 128 μg/mL): 32 µg/mL; MIC [6, 13]: >128 µg/mL; MIC ([7]; Staphylococcus simulans LJH13, drug-resistant poultry pathogen, two-fold serial dilution, Mueller-Hinton broth, 96-well plate, CLSI-based, maximum test concentration 128 μg/mL): 32 µg/mL; MIC (MRSA 16162; clinical MRSA 16162, two-fold serial dilution, Mueller-Hinton broth, 96-well plate, CLSI-based, maximum test concentration 128 μg/mL): 64 µg/mL; MIC (MRSA 745524; clinical MRSA 745524, two-fold serial dilution, Mueller-Hinton broth, 96-well plate, CLSI-based, maximum test concentration 128 μg/mL): 64 µg/mL
